Tests used:
human NHE-1 = molecular target: T1, human NHE-1 (Homo sapiens, UniProt P19634); test: NHE-1 inhibition, FLIPR assay measuring recovery of pHi in transfected cell lines; assay type: cell-based; conditions: pHi recovery in transfected LAP-1 cell lines expressing human NHE-1, read-out: NHE1 inhibition IC50
T1 construct: expressed in transfected cells; host or cells: LAP-1 (parental cell line without endogenous NHE activity), G418-selected transfectants
Procedure: The NHE-1 inhibition IC50 was determined in an FLIPR assay by measurement of the recovery in pHi in transfected cell lines which express human NHE-1.
The assay was carried out in an FLIPR (fluorescent imaging plate reader) with black-walled 96-well microtiter plates with clear bases.
The growth medium for the transfected cells (Iscove+10% fetal calf serum) additionally contained G418 as selection antibiotic in order to ensure the presence of the transfected sequences.
The actual assay started with the removal of the growth medium and addition of 100 μl of loading buffer per well (5 μM BCECF-AM [2′,7′-bis(carboxyethyl)-5- (and -6-)carboxyfluorescein, acetoxymethyl ester] in 20 mM NH4Cl, 115 mM choline chloride, 1 mM MgCI2, 1 mM CaCI2, 5 mM KCI, 20 mM HEPES, 5 mM glucose; pH 7.4 [adjusted with KOH]). The cells were then incubated at 37° C. for 20 minutes. This incubation led to loading of the cells with the fluorescent dye whose fluorescence intensity depends on pHi, and with NH4Cl which makes the cells slightly alkaline. The nonfluorescent dye precursor BCECF-AM is, as ester, membrane-permeable. The actual dye BCECF is not membrane-permeable but is liberated inside cells by esterases.
After this incubation for 20 minutes, the loading buffer which contained NH4Cl and free BCECF-AM was removed by washing three times in a cell washer (Tecan Columbus) with in each case 400 μl of washing buffer (133.8 mM choline chloride, 4.7 mM KCI, 1.25 mM MgCI2, 1.25 mM CaCI2, 0.97 mM K2HPO4, 0.23 mM KH2PO4, 5 mM HEPES, 5 mM glucose; pH 7.4 [adjusted with KOH]). The residual volume remaining in the wells was 90 μl (50-125 μl possible). This washing step removed the free BCECF-AM and resulted, as a consequence of the removal of the external NH4^+ ions, in intracellular acidification (˜pHi 6.3-6.4).
This may eventually lead to cell death if it persists long enough.
It was important at this point that the washing buffer was sodium-free (<1 mM) because extracellular sodium ions would lead to an instantaneous recovery of the pHi through the activity of the cloned NHE isoforms.
It was likewise important for all the buffers used (loading buffer, washing buffer, recovery buffer) not to contain any HCO3^− ions, because the presence of bicarbonate would lead to activation of interfering bicarbonate-dependent pHi regulatory systems present in the parental LAP-1 cell line.
The microtiter plates with the acidified cells were then (up to 20 minutes after the acidification) transferred to the FLIPR. In the FLIPR, the intracellular fluorescent dye was excited by light with a wavelength of 488 nm generated by an argon laser, and the measured parameters (laser power, illumination time and aperture of the CCD camera incorporated in the FLIPR) were chosen so that the average fluorescence signal per well was between 30 000 and 35 000 relative fluorescence units.
The actual measurement in the FLIPR started with a photograph being taken by the CCD camera every two seconds under software control. After ten seconds, the recovery of the intracellular pH was initiated by adding 90 μl of recovery buffer (133.8 mM NaCl, 4.7 mM KCI, 1.25 mM MgCI2, 1.25 mM CaCI2, 0.97 mM K2HPO4, 0.23 mM KH2PO4, 10 mM HEPES, 5 mM glucose; pH 7.4 [adjusted with NaOH]) by means of the 96-well pipettor incorporated in the FLIPR.
Positive control wells (100% NHE activity) were those to which pure recovery buffer was added, while negative controls (0% NHE activity) received washing buffer. Recovery buffer with twice the concentration of test substance was added to all the other wells. Measurement in the FLIPR terminated after 60 measurements (two minutes).
The raw data are exported into the ActivityBase program. This program firstly calculates the NHE activities for each tested substance concentration and, from these, the IC50 values for the substances. […]

[1] = In vivo pharmacokinetics, profiling with the "n in one method"; conditions: iv; fasting male beagle dog, single i.v. bolus into jugular vein, about 1 mg/kg of each substance, given together, plasma; read-out: Half-life t½ (converted)
Procedure: In vivo pharmacokinetics—profiling with the “n in one method”
The exposure data and the half-life were determined as characteristic follows:
Two NHE-1 inhibiotors of the invention (example 1 and example 9) and a known NHE-1 reference subtance (cariporide)
[drawing 36] where dissolved in the slightly acidic aqueous medium (water, pH 4, adjusted with 1 M hydrochloric acid). The concentration of the aqueous formulation prepared in this way was about 1.5 mg of each substance per 1 g of solution. 10 ml of this formulation were administered once as bolus by means of a catheter into the jugular vein of a fasting male beagle dog (dose about 1 mg of each administered substance per kg of the dog's body weight). Blood samples were obtained by means of a second catheter after 5 min, 15 min, 30 min, 1 h, 2 h, 4 h, 8 h and 24 h, and heparinized plasma was prepared by centrifugation at 1000 G in appropriate plasma tubes.
The plasma samples were worked up and quantified by MS/MS after an HPLC separation. Simultaneous determination of a plurality of substances was possible with this method owing to its high specificity. The half-lives could be calculated using the WinNonlin computer program from the concentration-time plots (see FIG. 1) and compared with the half-life of the known NHE-1 reference substance. Since the various substances were measured in the same animal at the same time, the result was an accurate comparison of the compounds, and a ranking of the half-lives was possible.

T1 sequence (P19634 whole entry): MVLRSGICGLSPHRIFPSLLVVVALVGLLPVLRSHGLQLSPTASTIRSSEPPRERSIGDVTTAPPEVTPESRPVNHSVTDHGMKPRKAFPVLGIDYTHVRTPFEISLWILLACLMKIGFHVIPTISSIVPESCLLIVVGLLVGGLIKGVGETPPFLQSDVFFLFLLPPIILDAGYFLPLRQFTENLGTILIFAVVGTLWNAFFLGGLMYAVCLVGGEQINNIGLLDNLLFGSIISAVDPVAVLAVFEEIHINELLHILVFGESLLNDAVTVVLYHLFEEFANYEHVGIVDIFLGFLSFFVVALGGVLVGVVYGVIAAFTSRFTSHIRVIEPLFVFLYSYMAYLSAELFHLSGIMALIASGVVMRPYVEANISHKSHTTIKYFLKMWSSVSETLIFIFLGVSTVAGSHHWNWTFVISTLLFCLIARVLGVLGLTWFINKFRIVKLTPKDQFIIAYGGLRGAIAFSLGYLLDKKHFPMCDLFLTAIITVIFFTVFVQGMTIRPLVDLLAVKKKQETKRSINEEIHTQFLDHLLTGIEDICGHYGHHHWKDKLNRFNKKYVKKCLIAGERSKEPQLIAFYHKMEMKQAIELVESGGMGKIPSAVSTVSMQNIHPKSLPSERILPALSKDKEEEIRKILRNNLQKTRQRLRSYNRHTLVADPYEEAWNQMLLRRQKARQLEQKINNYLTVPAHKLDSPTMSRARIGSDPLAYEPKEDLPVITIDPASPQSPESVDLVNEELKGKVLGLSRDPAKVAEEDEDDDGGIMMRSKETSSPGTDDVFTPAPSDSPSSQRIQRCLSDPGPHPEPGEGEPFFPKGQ

| Compound | IC50 (human NHE-1) | melting point | half-life [1] |
| --- | --- | --- | --- |
| Cc1cc(-c2ccc(S(F)(F)(F)(F)F)cc2C)c(S(C)(=O)=O)cc1C(=O)N=C(N)N [Example 11, N-(2-Methanesulfonyl-5,2′-dimethyl-4′-pentafluorosulfanylbiphenyl-4-carbonyl)guanidine] | 81.5 nM |  |  |
| Cc1cc(N(C)c2ccc(S(F)(F)(F)(F)F)cc2)c(S(C)(=O)=O)cc1C(=O)N=C(N)N [Example 8, N-{5-Methanesulfonyl-2-methyl-4-[methyl-(4-pentafluorosulfanyl-phenyl)amino]benzoyl}guanidine] | 3.7 nM |  |  |
| Cc1cc(S(=O)(=O)c2ccc(S(F)(F)(F)(F)F)cc2)c(S(C)(=O)=O)cc1C(=O)N=C(N)N [Example 4, N-[5-Methanesulfonyl-2-methyl-4-(4-pentafluorosulfanylphenylsulfonyl)-benzoyl]guanidine] | 4670 nM |  |  |
| Cc1cc(Nc2cccc(S(F)(F)(F)(F)F)c2)c(S(C)(=O)=O)cc1C(=O)N=C(N)N [Example 5, N-[5-Methanesulfonyl-2-methyl-4-(3-pentafluorosulfanylphenylamino)-benzoyl]guanidine] | 6.4 nM |  |  |
| Cc1cc(N(C)c2cccc(S(F)(F)(F)(F)F)c2)c(S(C)(=O)=O)cc1C(=O)N=C(N)N [Example 7, N-{5-Methanesulfonyl-2-methyl-4-[methyl-(3-pentafluorosulfanylphenyl)-amino]benzoyl}guanidine] | 14.5 nM |  |  |
| Cc1cc(-c2ccc(S(F)(F)(F)(F)F)cc2)c(S(C)(=O)=O)cc1C(=O)N=C(N)N [Example 9, N-(2-Methanesulfonyl-5-methyl-4′-pentafluorosulfanylbiphenyl-4-carbonyl)guanidine] | 2.1 nM | 238 to 240 °C | 39.9 h |
| Cc1cc(-c2cccc(S(F)(F)(F)(F)F)c2)c(S(C)(=O)=O)cc1C(=O)N=C(N)N [Example 10, N-(2-Methanesulfonyl-5-methyl-3′-pentafluorosulfanylbiphenyl-4-carbonyl)guanidine] | 38.8 nM | 169 to 175 °C |  |
| Cc1cc(Oc2cccc(S(F)(F)(F)(F)F)c2)c(S(C)(=O)=O)cc1C(=O)N=C(N)N [Example 1, N-[5-Methanesulfonyl-2-methyl-4-(3-pentafluorosulfanylphenoxy)-benzoyl]guanidine] | 3.9 nM | 166 to 168 °C | 20.2 h |
| Cc1cc(Sc2ccc(S(F)(F)(F)(F)F)cc2)c(S(C)(=O)=O)cc1C(=O)N=C(N)N [Example 3, N-[5-Methanesulfonyl-2-methyl-4-(4-pentafluorosulfanylphenylsulfanyl)benzoyl]-guanidine] | 4.7 nM |  |  |
| Cc1cc(Nc2ccc(S(F)(F)(F)(F)F)cc2)c(S(C)(=O)=O)cc1C(=O)N=C(N)N [Example 6, N-[5-Methanesulfonyl-2-methyl-4-(4-pentafluorosulfanylphenyl-amino)benzoyl]guanidine] | 27.1 nM |  |  |
| CC(C)c1ccc(C(=O)N=C(N)N)cc1S(C)(=O)=O.CS(=O)(=O)O [cariporide, reference compound] |  |  | 4.1 h |
| Cc1cc(Oc2ccc(S(F)(F)(F)(F)F)cc2)c(S(C)(=O)=O)cc1C(=O)N=C(N)N [Example 2, N-[5-Methanesulfonyl-2-methyl-4-(4-pentafluorosulfanylphenoxy)-benzoyl]guanidine] | 1.9 nM |  |  |

From patent US7381841B2, “Pentafluorosulfanylphenyl-substituted benzoylguanidines, processes for their preparation, their use as medicament or diagnostic aid, and medicament comprising them” (Sanofi-Aventis Deutschland GmbH, priority 2003, dated 2008)
